Row | melting point | SMILES
1 | 84 to 86 °C | Cc1cc(Oc2cccc(C(F)(F)F)c2)nn1C(=O)Nc1ccccc1Cl
2 | 224 to 226 °C | CCn1c2ccccc2c2oc(C(N)=O)cc(=O)c21
3 | 192 to 194 °C | COC(COC1CC2C3CCC4=CC(=O)CCC4(C)C3(F)C(O)CC2(C)C1(O)C(=O)CO)OC (stereo unspecified)
4 | 111 to 112 °C | CO[C@@H](Cc1ccc(C#CCOc2ccc(-c3ccccc3)cc2)cc1)C(=O)O
5 | 120 to 122 °C | COC(=O)CNc1ccc(OC(=O)CC2CCN(c3ccncc3)CC2)cc1
6 | > 300 °C | O=C(O)c1ccc(-c2c([N+](=O)[O-])oc3c2ccc2ccccc23)cc1
7 | 174 to 176 °C | Cc1ccc(NS(=O)(=O)c2ccc(N)cc2)cc1
8 | 197 to 198 °C | CCOC(=O)c1cn(CC)c2c(F)c(F)c(F)c(C)c2c1=O
9 | 73 to 76 °C | CC(C)(C)OC(=O)CN(O)CC(=O)OC(C)(C)C
10 | 194 to 196 °C | Clc1ccc(-c2cccc3[nH]c4c(c23)CCN(Cc2ccccc2)CC4)c(Cl)c1
11 | 233 to 234 °C | CC(C)(C)C(NC(=O)c1cc(Cl)cc(Cl)c1)Nc1c(Nc2cncc(C(F)(F)F)c2)c(=O)c1=O (stereo unspecified)
12 | 154 °C | COc1ccc(-c2cc(=O)n(CC(C)C)nc2-c2ccc(OC)c(F)c2)cc1F
13 | 140 to 141 °C | CC(=O)Oc1ccc2c(=O)c(C#N)c(C)oc2c1
14 | 224 to 225 °C | O=C(Cn1c(-c2ccc(C(F)(F)F)cc2)nc2cccnc21)NCc1ccccc1
15 | 150 to 152 °C | CCc1nc(Cc2ccc(NC(=O)/C=C/c3cnn(C)c3-c3ccc(F)cc3)cc2)no1
16 | 206 to 208 °C | O=C1NN(C(=O)c2ccccc2NCc2ccccc2)Cc2ccccc21
17 | 275 °C | Cc1ccc(N2C(=O)C(O)=C(C(=O)c3ccc(C(C)C)cc3)C2c2ccc(OC3CCOCC3)cc2)nn1 (stereo unspecified)
18 | 122 °C | CC(=O)N1N=C(c2ccncc2)OC1c1ccc(Cl)c([N+](=O)[O-])c1 (stereo unspecified)
19 | 159 to 160 °C | CCCn1c(=O)n([C@@H]2CCN(CCCCN3C(=O)c4cc(Cl)ccc4S3(=O)=O)[C@@H](C#N)C2)c2ccccc21 (relative stereo)
20 | 114 to 118 °C | COC(=O)CC(=O)COc1cc(O)c2c(c1)OC(c1ccc(OC)c(O)c1)CC2=O (stereo unspecified)
21 | 164 to 166 °C | COc1ccc(-c2ccc(C(C)=NOCCO)cc2)cc1
22 | 150 °C | CCOCn1nccc1C(O)c1ccc(O)c(Cl)c1Cl (stereo unspecified)
23 | 241 to 243 °C | CC(C)(C)c1cc(Nc2ccc(C(=O)O)cc2)cc(C(C)(C)C)c1O

Row | melting point | SMILES
24 | 163 °C | COc1ccc(-c2cc(C(=O)Nc3ccccc3)c(=O)n(CC3CC3)n2)cc1
25 | 138 to 140 °C | CC(=O)Oc1c(C)c(C)c2c(c1C)CCC(C)(COc1ccc(N)cc1)O2 (stereo unspecified)
26 | 225 to 228 °C | CCN(CC)C(=O)N[C@H]1CC[C@H](NC(=O)N(CC)CC)CC1
27 | 206 to 208 °C | CN1CCC(C2(O)c3ccccc3Oc3ccc(Cl)cc32)CC1 (stereo unspecified)
28 | 134 to 136 °C | C[C@@H](n1ncn(-c2ccc(OCC(F)(F)C(F)F)cc2)c1=O)[C@](O)(C=O)c1ccc(F)cc1F
29 | 141 to 142 °C | CN(C)C=Nc1ccc(-c2c[nH]cn2)cc1
30 | 107 to 109 °C | O=S(=O)(/C=C/c1ccc(Cl)cc1)Nc1ccccc1Cl
31 | 244 to 247 °C | CCc1c2nc(-c3cc(S(C)(=O)=O)ccc3OCC(C)C)[nH]c(=O)c2nn1Cc1cccnn1
32 | 242 to 244 °C | CN1C(=O)c2ccccc2NC(=O)C1c1ccccc1 (stereo unspecified)
33 | 121 to 123 °C | CCN1c2ncc(CCc3cccc(N)c3)cc2C(=O)N(C)c2ccc(Cl)nc21
34 | 33 to 35 °C | CCCC(=O)COS(=O)(=O)c1ccc(C)cc1
35 | 165 °C | CC(CC(=O)c1ccc2c(c1)C(C)(C)CCC2(C)C)C(=O)O (stereo unspecified)
36 | 155 to 158 °C | COCNC(=O)NC1CCC(=O)c2sccc21 (stereo unspecified)
37 | 112 °C | CCCCS(=O)Cc1cc(C)c(CCl)cc1C (stereo unspecified)
38 | 173 to 174 °C | CN(c1cccc2cc(C3=NCC(CC(=O)N4CCOCC4)S3)[nH]c12)S(=O)(=O)c1cccs1 (stereo unspecified)
39 | 64 to 66 °C | CCOC(=O)Cc1nnnn1C
40 | 128 °C | Fc1ccc2[nH]cc(CCc3ccncc3)c2c1
41 | 156 to 158 °C | COC(=O)C1=C(C)NC(C)C(C(=O)OC)=C1c1cc(Cl)ccc1COCc1ccccc1 (stereo unspecified)
42 | 155 to 158 °C | Cc1ccccc1NC(=O)Nc1ccc(C(=O)N2Cc3cccn3Cc3ccccc32)cc1
43 | 110 to 112 °C | CCCCc1oc2ccccc2c1C(=O)NCc1ccc2c(Br)c(OC(Cc3ccccc3)C(=O)OC)ccc2c1 (stereo unspecified)
44 | 87 to 90 °C | CC(C)Nc1nc(N)nc2c1ncn2C1C=CC(CO)C1 (stereo unspecified)
45 | 155 to 158 °C | Cc1noc(NS(=O)(=O)c2ccc(C(F)(F)F)cc2)c1Br
46 | 65 °C | N#CC(N)COc1ccccc1 (stereo unspecified)

Row | melting point | SMILES
47 | 104 to 108 °C | CS(=O)(=O)c1ccc(C(CC2CCCC2)C(=O)Nc2cnccn2)cc1[N+](=O)[O-] (stereo unspecified)
48 | 164 to 165 °C | COc1ccc(OC)c(C(=O)CC(CC(=O)c2ccc(Cl)cc2)c2cccc(C(=O)O)c2)c1 (stereo unspecified)
49 | 188 to 189 °C | Cc1cc(OCC(=O)Nc2cccc(C(=O)O)c2)ccc1C(C)C
50 | 80 to 81 °C | CCCCc1oc2ccccc2c1Cc1cc(I)c(OCCN(CC)CC)c(I)c1
51 | 137 to 140 °C | N#CC(c1ccccc1)(c1ccccc1)[C@H]1CCCN(CCc2ccc3c(c2)CCO3)C1
52 | 151 to 152 °C | CC(=O)c1ccc(SCCOc2ccc3ccccc3c2)cc1
53 | 160 to 172 °C | O=CC1c2cccc(Cl)c2C(C=O)c2cccc(Cl)c21 (stereo unspecified)
54 | 262 to 264 °C | N#Cc1csc(Oc2ccc(-c3ccc(Oc4scc(C#N)c4C#N)cc3)cc2)c1C#N
55 | 185 to 187 °C | CCCCc1nc2c(N)nc3ccccc3c2n1CCCCNC(=O)Nc1ccccc1
56 | 171 to 172 °C | COc1cc(COc2nn(-c3ccccc3)cc2C=O)ccc1OCc1sc(-c2ccccc2)nc1C
57 | 164 to 165 °C | O=S(=O)(Nc1cccc2cc(-c3nccs3)[nH]c12)c1cccs1
58 | 110 °C | Oc1ccc2c(c1Cl)Sc1ccccc1N2
59 | 294 to 296 °C | O=c1cc(-c2ccccc2)oc2ncc(CN3CCCC3)cc12
60 | 130 to 131 °C | COC(=O)C(=O)c1c(F)cc(OCCOc2ccc3ccccc3c2)cc1F
61 | 250 to 252 °C | Cc1ccc(S(=O)(=O)NCC(CC(=O)Nc2ccc(C(=O)O)cc2)c2ccc(Cl)cc2)cc1 (stereo unspecified)
62 | 174 °C | COc1cc(-c2nc3ccccc3n2Cc2ccccc2Cl)cc(OC)c1OC
63 | 180 °C | Cc1cc([N+](=O)[O-])c2c(c1SC(=O)N(C)C)CCC2
64 | 220 to 240 °C | COc1ccc2c(-c3cnc4[nH]cc(C(=O)N[C@H](C)C(=O)N5CC(C#N)C5)c4n3)nn(C)c2c1
65 | 118 to 119 °C | COc1ccc(C2=NN(C3CCN(S(=O)(=O)c4ccccc4OC(F)(F)F)CC3)C(=O)CC2)cc1OC
66 | 161 to 163 °C | CCOC(=O)CC1=C(O)c2sccc2S(=O)(=O)N1C
67 | 49 to 52 °C | CC1(C)Cc2c(C(=O)N3CCCC3)sc(Sc3ccccc3)c2-c2oncc21
68 | 151 °C | N#CCCc1cccc2ccn(Cc3cccc(/C=C/c4ccc5ccc(Cl)cc5n4)c3)c12
69 | 171 to 172 °C | CCCSCc1cc2oc(S(N)(=O)=O)cc2cn1

Row | melting point | SMILES
70 | 207 to 217 °C | COc1cc2c(cc1Nc1ncc(Cl)c(Nc3ccc(C(N)=O)cc3OC)n1)CCN(CCS(C)(=O)=O)CC2
71 | 150 to 152 °C | NC(=O)Cc1csc(-c2cccc(Br)c2)n1
72 | 110 to 111 °C | CC(C)CC(C(=O)O)c1cc(OCC2CC2)c(-c2ccc3nonc3c2)cc1F (stereo unspecified)
73 | 162 to 163 °C | O=C(O)CCc1cn(Cc2ccc(OCc3ccc(-c4ccccc4)cn3)cc2)nc1-c1ccc(F)cc1
74 | 261 to 262 °C | O=C(O)c1cn(C2COC2)c2c(F)c(N3CCCC3)c(F)cc2c1=O
75 | > 260 °C | COC(=O)CCc1ccc(-n2ccn(-c3ccc(C(=N)NC(=O)OC)cc3)c2=O)cc1
76 | 190 to 191 °C | CCOC(=O)c1c(S(=O)c2ccccc2)n(C2CC2)c2c(F)c(F)c(F)cc2c1=O (stereo unspecified)
77 | 150 to 152 °C | CC1(C)OC[C@H](Cc2ccccc2)N1C(=O)C(=O)c1ccn(-c2ccc(-c3ccccc3)cc2)c1
78 | 74 to 75 °C | Cc1cc2c(cc1Sc1ccc(C(=O)O)c(O)c1)C(C)(C)CCC2(C)C
79 | 83 to 86 °C | O=C1c2ccccc2CCc2ncsc21
80 | 186 to 188 °C | Cc1cn(-c2cc(NC(=O)OC(C)(C)C)cc(C(F)(F)F)c2)cn1
81 | 152 to 154 °C | NCCSc1nc(-c2ccccc2)c(-c2ccccc2)[nH]1
82 | 290 to 291 °C | O=c1cc(Nc2ccccc2)[nH]n1-c1ccc(S(=O)(=O)O)cc1
83 | 185 to 187 °C | COc1ccnc(CSc2nc3cc4c(cc3[nH]2)OC(F)(F)O4)c1OC
84 | 252 to 255 °C | Cn1cc(S(C)=O)c(=O)c2sc(-c3ccccc3)cc21 (stereo unspecified)
85 | 280 to 281 °C | COc1nc2ccccc2nc1NC(=S)N1CCN(c2cc(F)cc(F)c2)CC1
86 | 130 to 132 °C | CC(=O)N(C(C)=O)c1c(C#N)cnn1-c1ncc(C(F)(F)F)cc1Cl
87 | 264 to 265 °C | CC1(C)CCC(C)(C)c2cc3c(cc21)CCc1cc(-c2ccc(C(=O)O)cc2)oc1-3
88 | 166 °C | CC(C)(C)OC(=O)Nc1ccc2nc(N3CCOCC3)nn2c1
89 | 229 to 231 °C | Cc1cc(C=CC#N)cc(Oc2c(C(C)C)c(=O)[nH]c(=O)n2Cc2ccnc(N3C(=O)c4ccccc4C3=O)c2)c1
90 | 88.5 to 90.5 °C | O=C1c2ccc([N+](=O)[O-])cc2CC1Br (stereo unspecified)
91 | 249 to 250 °C | Cc1ccc(-c2c(Cl)nc(-c3ccccc3)nc2NS(=O)(=O)c2ccc(C(C)(C)C)cc2)cc1
92 | 75 °C | O=Cc1c2c(cn1Cc1ccccc1)OCCO2

Row | SMILES | melting point
93 | Cc1sc2c(c1C)C(c1ccc(Cl)cc1)=NC(CC(=O)Nc1ncccn1)c1nnc(C)n1-2 (stereo unspecified) | 251 to 253 °C
94 | CN(C)C1(c2ccccc2)CCC(=CC(=O)NCc2ccccc2)CC1 (stereo unspecified) | 145 to 148 °C
95 | COC(=O)COc1ccc(CC(C)NCC(O)c2cccc(C(F)(F)F)c2)cc1C (stereo unspecified) | 75 to 79 °C
96 | Nc1cc(N)c(Cl)cc1Cl | 138 to 141 °C
